Laboratory results reported in US10451610B2, “Prediction of response to PARP inhibitors and combinational therapy targeting C-MET and PARP1” (Board of Regents, The University of Texas System, priority 2014, dated 2019).

Tests used:
MDA-MB-231 cells = test: Cell viability assay; assay type: cell-based, human; settings: for sensitivity to PARP inhibitor, clonogenic cell survival and cell viability: c-Met knockdown vs control, cells expressing wild-type PARP1, FIGS. 3H, 13D-E; for sensitivity of cells to PARP inhibitors: MDA-MB-231, c-Met inhibitor with ABT-888 (cell viability) or AG014699 (clonogenic), FIGS. 2D-E, 8D
Experimental: Cells (1,500) were seeded in a 96-well plate and treated with the indicated inhibitors for 72 h. Then cells were incubated in fresh media with 100 μM resazurin for 1 h. Cell viability was measured by fluorescent plate readers at spectra of 560EX nm/590EM nm. Survival curves were expressed as mean±s.d. relative to DMSO-treated control from three independent experiments.
Cell growth was measured by cell viability, clonogenic cell survival, or soft agar anchorage-independent cell growth assay.

patients with TNBC [1] = settings: phase 2, combined with chemotherapy; cited from earlier work
patients with TNBC [2] = settings: phase 3; cited from earlier work
[3] = tested on: phosphorylation of PARP1 at Y907; test: Western blot of H2O2-induced PARP1 pY907 in MDA-MB-231 cells; assay type: cell-based, human; settings: pre-treatment before H2O2; FIG. 3G
Experimental: For immunoprecipitation (IP), lysates of cells treated as described in the text were precleared with 1 μg of mouse or rabbit IgG and 20 μl of protein G-agarose (Roche, Indianapolis, Ind.) for 1 h at 4° C. Pre-cleared lysates were incubated with 1 μg of primary antibodies or anti-IgG antibody at 4° C. overnight with gentle agitation. Lysates were further incubated with protein G-agarose for 30 min at 4° C. Protein G-agarose pellets were collected and washed three times at 4° C. The immunoprecipitants were subjected to sodium dodecyl sulfate-polyacrylamide gel electrophoresis (SDS-PAGE) and western blot analysis as described previously (Du et al., 2014).

[4] = tested on: patients with wild-type BRCA; settings: cited from earlier work
[5] = tested on: γH2AX foci formation in MDA-MB-231 cells; test: γH2AX foci formation by immunofluorescence confocal microscopy; assay type: cell-based, human; settings: c-Met inhibitor together with PARP inhibitor ABT-888; FIG. 3A
Experimental: Briefly, cells grown on chamber slides (Labtek, Scotts Valley, Calif.) were treated as described in the text. After washing with ice-cold PBS, cells were fixed, permeabilized, and incubated with primary antibodies and fluorescence-labeled secondary antibodies. Immunostained cells were examined using a Zeiss LSM 710 laser-scanning microscope (Carl Zeiss, Thornwood, N.Y.) with a 63×/1.4 objective. The ZEN and AxioVison (Carl Zeiss) and Image J software programs (National Institutes of Health, Bethesda, Md.) were used for data analysis. The mean±s.d. of fluorescence intensity of the indicated antibodies from five images in each treatment group was calculated.

[6] = tested on: PARP1 Y907 phosphorylation; test: PARP1-pY907 staining of MDA-MB-231 xenograft tumor tissues; assay type: in vivo, nude mice; settings: tissues harvested within 24 h after last treatment; FIG. 4O
Experimental: All animal procedures were conducted under the approval of the Institutional Animal Care and Use Committee (IACUC) at MD Anderson Cancer Center (protocol number 10-14-07231). Female nude mice at 6-8 weeks of age were injected in their mammary fat pads with 0.5×10^6 MDA-MB-231 cells, 2×10^6 HCC1937 cells or 5×10^6 MCF-7 cells. Female FBV at 6-8 weeks of age were injected in their mammary fat pads with 0.5×10^6 A1034 cells. H1993 cells were injected subcutaneously into the right flank of female nude mice at 6-8 weeks of age. For MDA-MB-231 and A1034 cells xenograft mouse models, mice were imaged with the IVIS Imaging System 5 days after injection and were divided into treatment groups (n=10). […] After 2 weeks of treatment, tumor sizes were assessed using with the IVIS Imaging System. Mice were injected with 100 μl of D-luciferin (Xenogen; 15 mg/ml in PBS). After 10 min, mice were anesthetized with a mixture of oxygen and isoflurane (Inhalation Anesthesia System; Matrix Medical, Orchard Park, N.Y.) and underwent imaging with the IVIS Imaging System. Imaging parameters were maintained across experiments for comparative analyses. Tumor samples were collected after final treatment and analyzed by immunofluorescence staining. For toxicity assessment, mice were weighed before and after treatment. Blood samples were collected after treatment. […]

SMILES: C[C@]1(c2nc3c(C(N)=O)cccc3[nH]2)CCCN1 [ABT-888, Veliparib]
- sensitivity to PARP inhibitor, clonogenic cell survival and cell viability (MDA-MB-231 cells): more sensitive

SMILES: NC(=O)c1ccc(I)c([N+](=O)[O-])c1 [iniparib]
- clinical benefit (patients with TNBC [1]): improved clinical benefits
- overall survival or progression free survival benefit (patients with TNBC [2]): did not provide significant overall survival or progression free survival benefit

SMILES: CNCc1ccc(-c2[nH]c3cc(F)cc4c3c2CCNC4=O)cc1 [AG014699, Rucaparib]
- sensitivity to PARP inhibitor, clonogenic cell survival and cell viability (MDA-MB-231 cells): more sensitive

SMILES: COc1cc2c(Oc3ccc(NC(=O)C4(C(=O)Nc5ccc(F)cc5)CC4)cc3F)ccnc2cc1OCCCN1CCOCC1 [foretinib]
- phosphorylation of PARP1 at Y907 induced by H2O2 [3]: abolished phosphorylation of PARP1 at Y907
- sensitivity of cells to PARP inhibitors (MDA-MB-231 cells): enhanced the sensitivity of cells to PARP inhibitors

SMILES: O=C(c1cc(Cc2n[nH]c(=O)c3ccccc23)ccc1F)N1CCN(C(=O)C2CC2)CC1 [olaparib]
- clinical response [4]: demonstrated response

SMILES: C[C@@H](Oc1cc(-c2cnn(C3CCNCC3)c2)cnc1N)c1c(Cl)ccc(F)c1Cl [crizotinib]
- γH2AX foci formation (marker of DNA damage) [5]: enhanced γH2AX foci formation
- phosphorylation of PARP1 at Y907 induced by H2O2 [3]: abolished phosphorylation of PARP1 at Y907
- PARP1 Y907 phosphorylation in tumor tissue [6]: inhibited
- sensitivity of cells to PARP inhibitors (MDA-MB-231 cells): enhanced the sensitivity of cells to PARP inhibitors
